Source: US20110152229A1, “BETULINIC ACID DERIVATIVES AS ANTI-HIV AGENTS” (Duke University, priority 2006, published 2011)
Read-outs that look alike come from different tables or passages of the source.

Assays:
MT4 cells = assay: Reduction of viable cells in a 4-day assay (MT4 cells); format: cell-based; settings: Homo sapiens, read-out: IC50 (drug concentration that resulted in a 50% reduction of viable cells)
HIV-1 NL4-3 = assay: Anti-HIV assay: HIV-1 NL4-3 replication in MT4 cells (p24 ELISA); format: cell-based
Description: Anti-HIV assay: A previously known HIV-1 infectivity assay was used in the experiments (See Zhu, et al. Proc. Natl. Acad. Sci. U.S.A. 2001, 98, 15227). A 96-well microtiter plate was used to set up the HIV-1 NL4-3 replication assay. HIV-1 NL4-3 at a multiplicity of infection (MOI) of 0.01 was used to infect MT4 cells. Culture supernatants were collected on day 4 post infection for p24 assay using an ELISA kit from ZeptoMetrix Corporation (Buffalo, N.Y.). Cell fusion assay: TZM cells that express luciferase upon fusion with envelope-expressing COS cells were used as fusion partners. The fusion assays were performed by transfecting monkey kidney cells (COS) with the expression vector pSRHS that contains the HIV-1 NL4-3 envelope genes. Electroporation was performed to express the HIV-1 envelope on COS cells. Briefly, COS cells (10^6) in culture medium were incubated with 2 μg of the envelope expression vector on ice for 10 min. Electroporation was performed using a gene pulser (BioRad, Hercules, Calif.) with capacitance set at 950 μF and voltage at 150 V. The transfected COS cells were cultured for one day before mixing with TZM cells. TZM cells (10×10^4) were incubated with COS cells (10^4) in 96-well flat-bottomed plates (Costar) in 100 μl culture medium. Compounds to be tested at various concentrations in 10 μl of culture medium were incubated with the cell mixtures at 37° C. for 24 hours. A Promega luciferase assay kit was used to quantify luciferase activity in the fused cells using a Biotek luminometer. The drug concentration that reduced the control HIV-1 envelope-mediated fusion by 50% is defined as 50% effective concentration (EC50). HIV-1 maturation assay: MT4 cells (10^5 cells/mL) were infected with HIV-1 NL4-3 at a multiplicity of infection (MOI) of 0.01 infectious units/cells for three days. The culture medium was removed and the infected cells were resuspended at 5×10^5 cells/mL and treated with BA derivatives at various concentrations. The virions in the culture supernatant were collected one day after drug treatment. The viral particles were spun down and subjected to Western Blot analysis of p24 and p25 as previously described. (See Zhou, et al. J. Virol. 2004, 78, 922 and Zhou, et al., Retrovirology 2004, 1, 15.)
Table 1 illustrated the effect of compound 11, 16-20 and 18b against HIV-NL4-3 in MT4 cells.

HIV-1 NL4-3 envelope = assay: Cell fusion assay (luciferase-based; TZM cells with envelope-expressing COS cells); settings: FIG. 1; TZM/COS fusion partners, luciferase readout
Description: (§1) Anti-HIV assay: A previously known HIV-1 infectivity assay was used in the experiments (See Zhu, et al. Proc. Natl. Acad. Sci. U.S.A. 2001, 98, 15227). A 96-well microtiter plate was used to set up the HIV-1 NL4-3 replication assay. HIV-1 NL4-3 at a multiplicity of infection (MOI) of 0.01 was used to infect MT4 cells. Culture supernatants were collected on day 4 post infection for p24 assay using an ELISA kit from ZeptoMetrix Corporation (Buffalo, N.Y.). Cell fusion assay: TZM cells that express luciferase upon fusion with envelope-expressing COS cells were used as fusion partners. The fusion assays were performed by transfecting monkey kidney cells (COS) with the expression vector pSRHS that contains the HIV-1 NL4-3 envelope genes. Electroporation was performed to express the HIV-1 envelope on COS cells. Briefly, COS cells (10^6) in culture medium were incubated with 2 μg of the envelope expression vector on ice for 10 min. Electroporation was performed using a gene pulser (BioRad, Hercules, Calif.) with capacitance set at 950 μF and voltage at 150 V. The transfected COS cells were cultured for one day before mixing with TZM cells. TZM cells (10×10^4) were incubated with COS cells (10^4) in 96-well flat-bottomed plates (Costar) in 100 μl culture medium. […] A Promega luciferase assay kit was used to quantify luciferase activity in the fused cells using a Biotek luminometer. […]

HIV-1 p25 processing = assay: HIV-1 maturation assay (Western blot of p24 and p25); format: cell-based; settings: FIG. 2; p25 detected by Western blot
Description: as §1

[1] = 96 h, cytotoxicity, 4-day assay, MT4 cells, average of at least two experiments
[2] = Human immunodeficiency virus 1, NL43, HIV-NL4-3 in MT4 cells, average of at least two experiments, read-out: EC50 (concentration that inhibits HIV-1 replication by 50%)
[3] = Human immunodeficiency virus 1, NL43, MT4, read-out: EC50 (concentration that inhibits HIV-1 replication by 50%)

For `C=C(C)[C@@H]1CC[C@]2(C(=O)NCCCCCCNC(C)=O)CC[C@]3(C)[C@H](CC[C@@H]4[C@@]5(C)CC[C@H](OC(=O)CC(C)(C)C(=O)O)C(C)(C)[C@@H]5CC[C@]43C)[C@@H]12` [Compound 17, [[N-[3β-O-(3′,3′-Dimethylsuccinyl)-lup-20(29)-en-28-oyl]-6-aminohexyl]-carbamoyl]methane], the IC50 (MT4 cells; [1]) was 7500 nM, the EC50 (HIV-1 NL4-3; [2]) was 7 nM and the melting point was 137 °C (dec.).

For `C=C(C)[C@@H]1CC[C@]2(C(=O)NCCCCCCCNC(C)=O)CC[C@]3(C)[C@H](CC[C@@H]4[C@@]5(C)CC[C@H](O)C(C)(C)[C@@H]5CC[C@]43C)[C@@H]12` [Compound 18b, [[N-[3β-Hydroxy-lup-20(29)-en-28-oyl]-7-aminoheptyl]-carbamoyl]methane], the IC50 (MT4 cells; MT4, 96 h) was > 10000 nM, the “anti-fusion activity: HIV-1 envelope mediated membrane fusion” value (HIV-1 NL4-3 envelope) was “inhibits HIV-1 envelope mediated membrane fusion” and the EC50 (HIV-1 NL4-3; [3]) was 47 nM.

For `C=C(C)[C@@H]1CC[C@]2(C(=O)On3nnc4ccccc43)CC[C@]3(C)[C@H](CC[C@@H]4[C@@]5(C)CC[C@H](OC(=O)C(C)(C)CC(=O)O)C(C)(C)[C@@H]5CC[C@]43C)[C@@H]12` [Compound 11, O-[3β-O-(2′,2′-Dimethylsuccinyl)-lup-20(29)-en-28-oyl]-1-hydroxybenzotriazole], the IC50 (MT4 cells; [1]) was 2500 nM, the EC50 (HIV-1 NL4-3; [2]) was 35 nM and the melting point was 151 to 154 °C.

With `C=C(C)[C@@H]1CC[C@]2(C(=O)NCCCCCCCNC(C)=O)CC[C@]3(C)[C@H](CC[C@@H]4[C@@]5(C)CC[C@H](OC(=O)CC(C)(C)C(=O)O)C(C)(C)[C@@H]5CC[C@]43C)[C@@H]12` [Compound 18, [[N-[3β-O-(3′,3′-Dimethylsuccinyl)-lup-20(29)-en-28-oyl]-7-aminoheptyl]-carbamoyl]methane] the IC50 (MT4 cells; MT4, 96 h) was 8000 nM, the “anti-fusion activity: HIV-1 envelope mediated membrane fusion” value (HIV-1 NL4-3 envelope) was “inhibits HIV-1 envelope mediated membrane fusion” and the EC50 (HIV-1 NL4-3; [3]) was 2.6 nM. The “anti-maturation activity: HIV-1 p25 processing” value (HIV-1 p25 processing) was “interfere with HIV-1 p25 processing” and the melting point was 117 to 120 °C.

`C=C(C)[C@@H]1CC[C@]2(C(=O)NCCCCCCCCCNC(C)=O)CC[C@]3(C)[C@H](CC[C@@H]4[C@@]5(C)CC[C@H](OC(=O)CC(C)(C)C(=O)O)C(C)(C)[C@@H]5CC[C@]43C)[C@@H]12` [Compound 20, [[N-[3β-O-(3′,3′-Dimethylsuccinyl)-lup-20(29)-en-28-oyl]-9-aminonoyl]-carbamoyl]methane] showed an IC50 (MT4 cells; [1]) of 7400 nM, an EC50 (HIV-1 NL4-3; [2]) of 12 nM and a melting point of 120 to 122 °C.

For `C=C(C)[C@@H]1CC[C@]2(C(=O)O)CC[C@]3(C)[C@H](CC[C@@H]4[C@@]5(C)CC[C@H](O)C(C)(C)[C@@H]5CC[C@]43C)[C@@H]12` [Betulinic acid], the “inhibition of NL4-3 replication” value (HIV-1 NL4-3; negative control, concentration not given) was “did not inhibit”.

For `C=C(C)[C@@H]1CC[C@]2(C(=O)NCCCCCNC(C)=O)CC[C@]3(C)[C@H](CC[C@@H]4[C@@]5(C)CC[C@H](OC(=O)CC(C)(C)C(=O)O)C(C)(C)[C@@H]5CC[C@]43C)[C@@H]12` [Compound 16, [[N-[3β-O-(3′,3′-dimethylsuccinyl)-lup-20(29)-en-28-oyl]-5-aminopentyl]-carbamoyl]methane], the IC50 (MT4 cells; [1]) was 9000 nM, the EC50 (HIV-1 NL4-3; [2]) was 12 nM and the melting point was 137 °C (dec.).

`C=C(C)[C@@H]1CC[C@]2(C(=O)NCCCCCCCCNC(C)=O)CC[C@]3(C)[C@H](CC[C@@H]4[C@@]5(C)CC[C@H](OC(=O)CC(C)(C)C(=O)O)C(C)(C)[C@@H]5CC[C@]43C)[C@@H]12` [Compound 19, [[N-[3β-O-(3′,3′-Dimethylsuccinyl)-lup-20(29)-en-28-oyl]-8-aminooctyl]-carbamoyl]methane] gave an IC50 (MT4 cells; [1]) of 7000 nM, an EC50 (HIV-1 NL4-3; [2]) of 3.6 nM and a melting point of 113 to 115 °C.
